Test results published in ChEMBL document CHEMBL5291721, “A preclinical secondary pharmacology resource illuminates target-adverse drug reaction associations of marketed drugs” (Nat Commun, 2023).

Key:
[1] = target: Prostaglandin G/H synthase 1 (Homo sapiens, UniProt P23219); format: functional
Thromboxane A2 receptor [2] = target: T1, Thromboxane A2 receptor (Homo sapiens, UniProt P21731); format: functional, cell-based
T1 sequence (P21731 whole entry): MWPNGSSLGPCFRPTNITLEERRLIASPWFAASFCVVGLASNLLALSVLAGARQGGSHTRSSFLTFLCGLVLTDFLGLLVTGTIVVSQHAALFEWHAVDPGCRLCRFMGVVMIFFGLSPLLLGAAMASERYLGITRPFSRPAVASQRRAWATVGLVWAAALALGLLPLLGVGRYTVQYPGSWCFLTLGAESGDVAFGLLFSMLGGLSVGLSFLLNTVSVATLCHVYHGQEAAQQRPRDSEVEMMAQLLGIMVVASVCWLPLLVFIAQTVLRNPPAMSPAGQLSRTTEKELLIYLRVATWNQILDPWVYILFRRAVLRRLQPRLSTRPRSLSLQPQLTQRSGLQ

[3] = target: T2, 5-hydroxytryptamine receptor 1A (Homo sapiens, UniProt P08908)
T2 sequence (P08908 whole entry): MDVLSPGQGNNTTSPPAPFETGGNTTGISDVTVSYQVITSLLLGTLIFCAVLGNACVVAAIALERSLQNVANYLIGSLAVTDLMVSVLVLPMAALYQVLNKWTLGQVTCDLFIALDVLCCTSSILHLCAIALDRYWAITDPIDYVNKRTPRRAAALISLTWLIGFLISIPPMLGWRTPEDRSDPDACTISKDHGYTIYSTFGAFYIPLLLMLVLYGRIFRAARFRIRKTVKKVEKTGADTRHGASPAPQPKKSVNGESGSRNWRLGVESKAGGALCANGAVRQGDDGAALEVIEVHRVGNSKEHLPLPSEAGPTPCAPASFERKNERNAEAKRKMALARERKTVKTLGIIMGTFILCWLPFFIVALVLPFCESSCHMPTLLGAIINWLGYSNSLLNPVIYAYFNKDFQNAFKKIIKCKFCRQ

[4] = target: Sodium-dependent noradrenaline transporter (Homo sapiens, UniProt P23975)
Estrogen receptor = target: T3, Estrogen receptor (Homo sapiens, UniProt P03372)
T3 sequence (P03372 whole entry): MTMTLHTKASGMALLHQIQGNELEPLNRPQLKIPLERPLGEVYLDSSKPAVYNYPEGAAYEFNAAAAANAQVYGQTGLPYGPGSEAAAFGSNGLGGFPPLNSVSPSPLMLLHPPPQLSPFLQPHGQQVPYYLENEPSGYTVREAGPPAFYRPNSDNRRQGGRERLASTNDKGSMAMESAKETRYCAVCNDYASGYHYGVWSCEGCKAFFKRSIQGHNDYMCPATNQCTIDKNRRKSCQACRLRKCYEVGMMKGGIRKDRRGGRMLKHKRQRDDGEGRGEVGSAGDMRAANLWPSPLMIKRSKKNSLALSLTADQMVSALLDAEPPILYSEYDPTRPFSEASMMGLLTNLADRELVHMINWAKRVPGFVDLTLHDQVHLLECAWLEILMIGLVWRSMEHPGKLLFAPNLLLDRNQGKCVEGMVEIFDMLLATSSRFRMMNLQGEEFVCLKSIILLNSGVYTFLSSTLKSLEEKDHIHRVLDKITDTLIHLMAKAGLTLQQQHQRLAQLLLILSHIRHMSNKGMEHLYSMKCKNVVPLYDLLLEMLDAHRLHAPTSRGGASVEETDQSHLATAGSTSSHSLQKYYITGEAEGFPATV

[5] = target: Vascular endothelial growth factor receptor 2 (Homo sapiens, UniProt P35968); format: functional
[6] = target: T4, Alpha-2B adrenergic receptor (Homo sapiens, UniProt P18089)
T4 sequence (P18089 whole entry): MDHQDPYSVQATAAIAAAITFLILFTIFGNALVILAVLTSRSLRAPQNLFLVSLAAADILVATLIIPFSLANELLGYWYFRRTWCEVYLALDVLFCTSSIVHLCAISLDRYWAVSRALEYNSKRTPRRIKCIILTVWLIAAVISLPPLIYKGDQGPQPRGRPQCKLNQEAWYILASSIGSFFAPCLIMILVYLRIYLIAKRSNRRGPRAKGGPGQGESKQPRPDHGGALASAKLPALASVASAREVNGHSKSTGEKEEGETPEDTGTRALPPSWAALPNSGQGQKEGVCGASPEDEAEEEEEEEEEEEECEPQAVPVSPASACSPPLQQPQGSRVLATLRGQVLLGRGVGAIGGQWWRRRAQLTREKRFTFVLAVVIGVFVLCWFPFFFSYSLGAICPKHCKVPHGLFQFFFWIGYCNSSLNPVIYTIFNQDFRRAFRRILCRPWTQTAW

[7] = target: 5-hydroxytryptamine receptor 2A (Homo sapiens, UniProt P28223); format: functional, cell-based
Mu-type opioid receptor = Mu-type opioid receptor (Homo sapiens, UniProt P35372)
Histamine H3 receptor = Histamine H3 receptor (Homo sapiens, UniProt Q9Y5N1)
Thromboxane A2 receptor [8] = target: T1, Thromboxane A2 receptor
Histamine H2 receptor = Histamine H2 receptor (Homo sapiens, UniProt P25021); format: functional, cell-based
[9] = target: T5, Neuropeptide Y receptor type 1 (Homo sapiens, UniProt P25929)
T5 sequence (P25929 whole entry): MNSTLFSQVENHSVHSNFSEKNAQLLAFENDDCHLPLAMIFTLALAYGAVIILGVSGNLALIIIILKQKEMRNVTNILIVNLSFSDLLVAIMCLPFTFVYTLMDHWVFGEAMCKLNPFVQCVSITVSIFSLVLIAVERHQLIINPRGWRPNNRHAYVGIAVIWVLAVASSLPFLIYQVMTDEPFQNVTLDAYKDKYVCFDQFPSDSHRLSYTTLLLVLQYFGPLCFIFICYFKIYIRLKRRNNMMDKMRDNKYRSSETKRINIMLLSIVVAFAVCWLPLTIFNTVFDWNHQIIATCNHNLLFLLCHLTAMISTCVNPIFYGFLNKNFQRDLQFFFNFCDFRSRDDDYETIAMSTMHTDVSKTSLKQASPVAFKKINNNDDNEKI
Further: assay procedure not described here.

Prostaglandin G/H synthase 1, sequence (P23219 whole entry): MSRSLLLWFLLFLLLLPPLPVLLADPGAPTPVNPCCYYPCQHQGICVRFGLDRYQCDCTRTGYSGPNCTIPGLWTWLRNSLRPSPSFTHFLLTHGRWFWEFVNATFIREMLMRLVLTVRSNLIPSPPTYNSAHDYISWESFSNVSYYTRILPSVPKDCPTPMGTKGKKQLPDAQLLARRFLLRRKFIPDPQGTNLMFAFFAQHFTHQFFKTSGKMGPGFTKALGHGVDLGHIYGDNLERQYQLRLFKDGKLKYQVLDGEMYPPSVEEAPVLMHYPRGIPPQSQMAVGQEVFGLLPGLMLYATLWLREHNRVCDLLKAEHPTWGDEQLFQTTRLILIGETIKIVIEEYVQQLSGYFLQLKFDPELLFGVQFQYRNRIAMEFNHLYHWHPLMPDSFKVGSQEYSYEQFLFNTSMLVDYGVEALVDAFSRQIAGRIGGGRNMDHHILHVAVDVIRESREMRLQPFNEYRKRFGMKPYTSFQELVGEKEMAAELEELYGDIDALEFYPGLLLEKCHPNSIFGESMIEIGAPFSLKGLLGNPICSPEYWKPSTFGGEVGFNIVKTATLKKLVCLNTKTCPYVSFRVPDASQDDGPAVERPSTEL
Sodium-dependent noradrenaline transporter, sequence (P23975 whole entry): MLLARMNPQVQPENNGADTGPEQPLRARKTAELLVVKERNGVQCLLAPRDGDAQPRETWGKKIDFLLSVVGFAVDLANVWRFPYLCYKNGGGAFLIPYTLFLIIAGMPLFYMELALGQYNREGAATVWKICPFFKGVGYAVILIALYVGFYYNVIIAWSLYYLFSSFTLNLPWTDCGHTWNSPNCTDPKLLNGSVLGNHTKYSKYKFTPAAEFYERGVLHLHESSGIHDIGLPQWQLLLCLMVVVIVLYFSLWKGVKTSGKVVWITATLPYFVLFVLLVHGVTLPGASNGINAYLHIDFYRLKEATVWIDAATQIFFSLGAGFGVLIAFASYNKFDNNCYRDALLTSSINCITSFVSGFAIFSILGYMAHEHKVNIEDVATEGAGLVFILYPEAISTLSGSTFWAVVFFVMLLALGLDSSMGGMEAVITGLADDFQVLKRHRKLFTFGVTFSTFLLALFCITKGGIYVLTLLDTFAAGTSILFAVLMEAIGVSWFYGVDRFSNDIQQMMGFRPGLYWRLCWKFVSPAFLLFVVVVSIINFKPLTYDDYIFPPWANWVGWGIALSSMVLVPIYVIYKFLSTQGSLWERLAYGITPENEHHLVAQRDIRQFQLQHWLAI
Vascular endothelial growth factor receptor 2, sequence (P35968 whole entry): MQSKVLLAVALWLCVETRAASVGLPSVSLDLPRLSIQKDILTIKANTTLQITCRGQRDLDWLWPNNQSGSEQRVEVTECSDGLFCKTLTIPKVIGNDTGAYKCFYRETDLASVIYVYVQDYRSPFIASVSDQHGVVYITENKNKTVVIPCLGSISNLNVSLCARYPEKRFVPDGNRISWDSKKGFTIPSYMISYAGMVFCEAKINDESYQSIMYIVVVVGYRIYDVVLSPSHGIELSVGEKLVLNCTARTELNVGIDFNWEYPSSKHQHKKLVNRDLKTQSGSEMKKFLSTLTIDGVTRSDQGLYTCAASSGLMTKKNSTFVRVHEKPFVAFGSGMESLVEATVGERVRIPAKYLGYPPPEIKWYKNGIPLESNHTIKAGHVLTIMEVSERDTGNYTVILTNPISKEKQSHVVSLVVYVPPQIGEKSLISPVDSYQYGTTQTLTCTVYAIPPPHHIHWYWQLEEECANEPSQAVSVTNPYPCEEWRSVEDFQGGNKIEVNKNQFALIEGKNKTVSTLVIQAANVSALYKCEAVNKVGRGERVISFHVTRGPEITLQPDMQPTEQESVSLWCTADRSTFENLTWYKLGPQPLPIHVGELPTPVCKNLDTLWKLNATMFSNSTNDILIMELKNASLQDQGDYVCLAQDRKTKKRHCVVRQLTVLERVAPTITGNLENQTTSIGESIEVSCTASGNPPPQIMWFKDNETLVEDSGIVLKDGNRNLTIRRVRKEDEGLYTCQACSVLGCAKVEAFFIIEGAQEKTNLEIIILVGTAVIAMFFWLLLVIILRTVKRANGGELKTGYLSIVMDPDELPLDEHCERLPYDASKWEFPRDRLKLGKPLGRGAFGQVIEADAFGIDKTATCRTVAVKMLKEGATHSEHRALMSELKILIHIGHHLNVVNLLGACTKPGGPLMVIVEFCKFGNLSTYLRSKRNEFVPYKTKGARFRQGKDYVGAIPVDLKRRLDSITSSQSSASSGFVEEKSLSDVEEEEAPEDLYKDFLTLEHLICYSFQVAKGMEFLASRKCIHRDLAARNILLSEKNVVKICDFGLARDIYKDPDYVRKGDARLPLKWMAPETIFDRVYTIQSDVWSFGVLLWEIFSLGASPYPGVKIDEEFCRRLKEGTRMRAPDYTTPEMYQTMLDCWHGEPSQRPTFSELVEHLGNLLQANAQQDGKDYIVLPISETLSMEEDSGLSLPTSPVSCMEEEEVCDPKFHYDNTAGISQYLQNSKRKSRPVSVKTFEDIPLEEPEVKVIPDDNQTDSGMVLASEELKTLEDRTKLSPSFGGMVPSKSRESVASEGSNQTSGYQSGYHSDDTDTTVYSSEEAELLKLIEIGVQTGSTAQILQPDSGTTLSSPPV
Histamine H3 receptor, sequence (Q9Y5N1 whole entry): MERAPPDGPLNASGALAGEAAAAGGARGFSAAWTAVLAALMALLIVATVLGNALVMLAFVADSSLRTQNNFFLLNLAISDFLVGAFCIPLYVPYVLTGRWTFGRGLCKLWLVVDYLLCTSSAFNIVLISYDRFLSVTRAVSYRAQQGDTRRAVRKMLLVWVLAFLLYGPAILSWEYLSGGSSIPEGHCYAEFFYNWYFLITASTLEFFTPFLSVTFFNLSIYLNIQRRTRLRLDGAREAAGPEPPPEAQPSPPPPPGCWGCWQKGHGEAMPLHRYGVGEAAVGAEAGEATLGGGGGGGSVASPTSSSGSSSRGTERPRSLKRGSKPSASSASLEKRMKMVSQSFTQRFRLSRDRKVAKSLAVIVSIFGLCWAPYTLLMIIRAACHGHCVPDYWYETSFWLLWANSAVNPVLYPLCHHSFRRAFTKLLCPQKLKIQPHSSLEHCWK
Histamine H2 receptor, sequence (P25021 whole entry): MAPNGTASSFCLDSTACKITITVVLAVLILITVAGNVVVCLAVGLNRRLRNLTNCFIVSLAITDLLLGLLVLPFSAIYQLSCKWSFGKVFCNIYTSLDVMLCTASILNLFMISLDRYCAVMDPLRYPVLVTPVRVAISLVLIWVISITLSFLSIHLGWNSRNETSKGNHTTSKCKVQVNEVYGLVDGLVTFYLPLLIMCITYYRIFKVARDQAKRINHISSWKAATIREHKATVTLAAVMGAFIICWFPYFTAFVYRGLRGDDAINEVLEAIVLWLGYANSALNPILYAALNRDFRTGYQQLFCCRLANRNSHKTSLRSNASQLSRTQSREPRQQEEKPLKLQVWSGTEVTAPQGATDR
5-hydroxytryptamine receptor 2A, sequence (P28223 whole entry): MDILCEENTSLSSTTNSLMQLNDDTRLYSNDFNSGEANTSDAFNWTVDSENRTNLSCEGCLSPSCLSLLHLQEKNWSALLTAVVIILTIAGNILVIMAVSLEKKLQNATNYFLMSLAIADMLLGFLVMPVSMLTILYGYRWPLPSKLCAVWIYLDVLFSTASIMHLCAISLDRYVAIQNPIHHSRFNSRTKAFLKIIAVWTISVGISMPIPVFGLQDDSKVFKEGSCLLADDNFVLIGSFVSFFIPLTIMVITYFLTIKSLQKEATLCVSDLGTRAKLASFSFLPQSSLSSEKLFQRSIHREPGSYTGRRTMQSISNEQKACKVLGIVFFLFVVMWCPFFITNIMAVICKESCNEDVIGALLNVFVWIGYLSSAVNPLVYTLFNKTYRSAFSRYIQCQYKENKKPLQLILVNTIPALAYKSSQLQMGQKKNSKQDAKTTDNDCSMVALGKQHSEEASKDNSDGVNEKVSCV
Mu-type opioid receptor, sequence (P35372 whole entry): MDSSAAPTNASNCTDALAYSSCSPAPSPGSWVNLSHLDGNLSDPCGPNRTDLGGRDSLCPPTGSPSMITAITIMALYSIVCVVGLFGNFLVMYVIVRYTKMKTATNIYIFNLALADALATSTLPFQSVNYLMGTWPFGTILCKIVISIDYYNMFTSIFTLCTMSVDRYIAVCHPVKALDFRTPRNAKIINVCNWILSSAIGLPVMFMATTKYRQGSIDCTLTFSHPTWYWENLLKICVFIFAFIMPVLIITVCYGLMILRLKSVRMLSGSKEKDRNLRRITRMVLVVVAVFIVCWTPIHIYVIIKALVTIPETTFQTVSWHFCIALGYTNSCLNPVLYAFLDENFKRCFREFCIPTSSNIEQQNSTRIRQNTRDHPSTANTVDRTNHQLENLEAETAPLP

Row | SMILES | AC50 [1] [µM] | AC50 (Thromboxane A2 receptor [2]) [µM] | AC50 [3] [µM] | AC50 [4] [µM] | AC50 (Estrogen receptor) [µM] | AC50 [5] [µM] | AC50 [6] [µM] | AC50 [7] [µM] | AC50 (Mu-type opioid receptor) [µM] | AC50 (Histamine H3 receptor) [µM] | AC50 (Thromboxane A2 receptor [8]) [µM] | AC50 (Histamine H2 receptor) [µM] | AC50 [9] [µM]
1 | OC[C@H]1NC[C@H](O)[C@@H](O)[C@H]1O | > 30 | > 30 | > 30 | > 30 | > 30 | > 30 |  |  |  |  |  |  | 
2 | CC#CC(=O)N1CCC[C@H]1c1nc(-c2ccc(C(=O)Nc3ccccn3)cc2)c2c(N)nccn12 [ACALABRUTINIB] | > 30 | > 30 | > 30 | > 30 | > 30 | 2.01 |  |  |  |  |  |  | 
3 | C=CCOc1ccc(CC(=O)O)cc1Cl [ALCLOFENAC] | > 3 | > 30 | > 30 | > 30 | > 30 | > 30 |  |  |  |  |  |  | 
4 | NC(=O)C1(N2CCCCC2)CCN(CCCN2c3ccccc3CCc3ccccc32)CC1 [CARPIPRAMINE] | > 30 | 24.6 | 2.83 | 11.7 | > 30 | > 30 |  |  |  |  |  |  | 
5 | CN1CCN(C(c2ccccc2)c2ccc(Cl)cc2)CC1 (centres undefined) [CHLORCYCLIZINE] | > 30 | 11.3 | 13.9 | 21.2 | > 30 | > 30 |  |  |  |  |  |  | 
6 | O=P1(N(CCCl)CCCl)NCCCO1 (centres undefined) [CYCLOPHOSPHAMIDE ANHYDROUS] | > 30 | > 30 | > 30 | > 30 | > 30 | > 30 |  |  |  |  |  |  | 
7 | CC(C)Nc1cccnc1N1CCN(C(=O)c2cc3cc(NS(C)(=O)=O)ccc3[nH]2)CC1 [DELAVIRDINE] | > 30 | > 30 | > 30 | > 30 | > 30 | > 30 |  |  |  |  |  |  | 
8 | C[C@H](Nc1ncnc2[nH]cnc12)c1cc2cccc(Cl)c2c(=O)n1-c1ccccc1 [DUVELISIB] | > 30 | > 30 | > 30 | > 30 | > 30 |  | > 30 | 18 | > 30 | > 30 |  |  | 
9 | C[C@]12CC[C@@H]3c4ccc(OC(=O)N(CCCl)CCCl)cc4CC[C@H]3[C@@H]1CC[C@@H]2OP(=O)(O)O [ESTRAMUSTINE PHOSPHATE] | > 30 | > 30 | > 30 | > 30 | 2.03 | 19.5 |  |  |  |  |  |  | 
10 | O=c1[nH]c2ccccc2n1CCN1CCN(c2cccc(C(F)(F)F)c2)CC1 [FLIBANSERIN] | > 30 | > 30 | 0.003 | > 30 | > 30 | > 30 |  |  |  |  |  |  | 
11 | O=C(O)[C@H](O)[C@@H](O)[C@H](O)[C@H](O)CO [GLUCONIC ACID] | > 30 | > 30 | > 30 | > 30 |  | > 30 |  |  |  |  |  |  | 
12 | N=C(N)NCC1COc2ccccc2O1 (centres undefined) [GUANOXAN] | > 30 | > 30 | 1.27 | 5.56 | > 30 | > 30 |  |  |  |  |  |  | 
13 | N#Cc1ccnc(N2C(=O)CC[C@H]2C(=O)N(c2cncc(F)c2)[C@H](C(=O)NC2CC(F)(F)C2)c2ccccc2Cl)c1 [IVOSIDENIB] | > 30 | > 30 | > 30 | > 30 | > 30 | > 30 |  |  |  |  |  |  | 
14 | CNC1(c2ccccc2Cl)CCCCC1=O (centres undefined) [KETAMINE] | > 30 | > 30 | > 30 | > 30 | > 30 | > 30 |  |  |  |  |  |  | 
15 | CCCCCCO[C@@H](C)c1cccc(-c2csc(NC(=O)c3cc(Cl)c(/C=C(\C)C(=O)O)c(Cl)c3)n2)c1OC [LUSUTROMBOPAG] | 6.42 | > 30 | 6.96 | > 30 | 2.91 | > 30 |  |  |  |  |  |  | 
16 | Cc1cc(C)cc(OCC2CNC(=O)O2)c1 (centres undefined) [METAXALONE] | > 30 | > 30 | > 30 | 10.2 | > 30 | > 30 |  |  |  |  |  |  | 
17 | CS(=O)(=O)Nc1ccc([N+](=O)[O-])cc1Oc1ccccc1 [NIMESULIDE] |  | > 30 | > 30 | > 30 |  | > 30 |  |  |  | > 30 | 27 | > 30 | > 30
18 | CCCCCCCC/C=C\CCCCCCCC(=O)O [OLEIC ACID] | 3.54 | > 30 | > 30 | 27.2 | > 30 | > 30 |  |  |  |  |  |  | 
19 | C#CCN(C)Cc1ccccc1 [PARGYLINE] | > 30 | > 30 | > 30 | > 30 | > 30 |  | > 30 | > 30 |  |  |  | > 30 | 
20 | CC1=C(C/C=C(\C)CCC[C@H](C)CCC[C@H](C)CCCC(C)C)C(=O)c2ccccc2C1=O [PHYTONADIONE] | 13.4 | > 30 | > 30 | > 30 |  | > 30 |  |  |  |  |  |  | 
21 | NC(=O)C1(N2CCCCC2)CCN(CCCC(=O)c2ccc(F)cc2)CC1 [PIPAMPERONE] | > 30 | > 30 | 11.5 | > 30 | > 30 | > 30 |  |  |  |  |  |  | 
22 | CC(C)(Oc1ccc(Cl)cc1)C(=O)NC(=O)NCN1CCOCC1 [PLAFIBRIDE] | > 30 | > 30 | > 30 | > 30 | > 30 | > 30 |  |  |  |  |  |  | 
23 | CC(C)NC[C@H](O)COc1ccc(O)cc1 [PRENALTEROL] | 5.86 | > 30 | > 30 | 4.55 | > 30 | > 30 |  |  |  |  |  |  | 
24 | CN1CCC(N(Cc2cccs2)c2ccccc2)CC1 [THENALIDINE] | > 30 | > 30 | 8.65 | 0.399 | > 30 | > 30 |  |  |  |  |  |  | 
25 | Cc1cccc(C)c1NC(=O)c1cc(S(N)(=O)=O)c(Cl)cc1O [XIPAMIDE] | > 30 | > 30 | > 30 | > 30 |  | > 30 |  |  |  |  |  |  | 
